# Test results published in publication PMC9297976 (Journal of Applied Toxicology, 2021).
# Key:
# medaka Esr1 (mEsr1) [1] = molecular target: T1, medaka Esr1 (mEsr1) (Oryzias latipes, UniProt P50241); experiment: cell-based; design: species or system Japanese medaka (Oryzias latipes); details: MAC = 1.0 × 10^−4 M
# T1 sequence (P50241 1-620): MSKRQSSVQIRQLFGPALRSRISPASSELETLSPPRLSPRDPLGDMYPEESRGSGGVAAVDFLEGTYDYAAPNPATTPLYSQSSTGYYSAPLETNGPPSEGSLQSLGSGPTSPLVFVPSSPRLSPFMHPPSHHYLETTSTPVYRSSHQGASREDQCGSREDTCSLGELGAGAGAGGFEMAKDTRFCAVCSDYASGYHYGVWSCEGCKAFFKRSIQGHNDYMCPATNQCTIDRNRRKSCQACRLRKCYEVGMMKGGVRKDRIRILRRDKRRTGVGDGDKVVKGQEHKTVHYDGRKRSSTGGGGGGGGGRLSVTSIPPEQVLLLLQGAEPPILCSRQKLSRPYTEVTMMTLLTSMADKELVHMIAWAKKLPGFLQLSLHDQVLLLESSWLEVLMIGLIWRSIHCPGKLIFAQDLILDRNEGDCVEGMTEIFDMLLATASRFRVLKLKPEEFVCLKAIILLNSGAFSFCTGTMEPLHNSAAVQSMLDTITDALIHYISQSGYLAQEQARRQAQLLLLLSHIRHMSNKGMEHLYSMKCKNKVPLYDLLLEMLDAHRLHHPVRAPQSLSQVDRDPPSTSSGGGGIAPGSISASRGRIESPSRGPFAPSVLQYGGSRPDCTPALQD
# medaka Esr1 (mEsr1) [2] = molecular target: T1, medaka Esr1 (mEsr1); experiment: Medaka Esr1 reporter gene assay, antagonist assay; type: cell-based, Japanese medaka (Oryzias latipes)
# medaka ARβ (mArβ) [3] = molecular target: T2, medaka ARβ (mArβ) (Oryzias latipes, UniProt D1MV73); experiment: Medaka ARβ reporter gene assay, agonist assay; type: cell-based, Japanese medaka (Oryzias latipes); details: MAC = 1.0 × 10^−4 M
# T2 sequence (D1MV73 1-744): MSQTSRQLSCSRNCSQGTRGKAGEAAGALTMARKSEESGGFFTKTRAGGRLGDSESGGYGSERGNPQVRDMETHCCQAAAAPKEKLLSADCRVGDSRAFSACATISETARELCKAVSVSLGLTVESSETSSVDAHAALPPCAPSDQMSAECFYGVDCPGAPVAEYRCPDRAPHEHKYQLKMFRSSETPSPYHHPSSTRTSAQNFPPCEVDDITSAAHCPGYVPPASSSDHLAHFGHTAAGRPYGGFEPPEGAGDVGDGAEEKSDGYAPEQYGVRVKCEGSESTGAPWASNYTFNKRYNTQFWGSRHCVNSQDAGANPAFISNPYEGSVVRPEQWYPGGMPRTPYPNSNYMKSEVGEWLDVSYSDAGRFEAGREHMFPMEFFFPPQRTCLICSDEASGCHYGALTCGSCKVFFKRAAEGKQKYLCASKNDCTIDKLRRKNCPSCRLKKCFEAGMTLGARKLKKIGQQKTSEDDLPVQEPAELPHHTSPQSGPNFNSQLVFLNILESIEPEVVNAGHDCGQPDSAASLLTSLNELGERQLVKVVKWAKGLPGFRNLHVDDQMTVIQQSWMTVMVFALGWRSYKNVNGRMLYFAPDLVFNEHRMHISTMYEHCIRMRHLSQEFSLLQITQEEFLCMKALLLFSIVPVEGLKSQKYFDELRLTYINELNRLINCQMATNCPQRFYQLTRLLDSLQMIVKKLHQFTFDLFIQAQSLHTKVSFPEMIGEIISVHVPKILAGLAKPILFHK
# medaka ARβ (mArβ) [4] = molecular target: T2, medaka ARβ (mArβ); experiment: Medaka ARβ reporter gene assay, antagonist assay; type: cell-based, Japanese medaka (Oryzias latipes); details: 11‐KT spiked at 50 nM (D); MAC = 3.2 × 10^−5 M
# [5] = system: Japanese medaka (Oryzias latipes); experiment: Fish Short‐Term Reproduction Assay; type: in vivo; details: for GSI Female / GSI Male / HSI Male / Length Female / Length Male / Weight Female / Weight Male: completion of exposure
# [6] = 18.5 mg/L measured, 21 d, sig. ↑ vs control
# [7] = measured concentration 2.25 mg/L
# [8] = measured concentration 4.76 mg/L
# [9] = measured concentration 8.72 mg/L
# [10] = measured concentration 18.5 mg/L
smiles,measurement,setting,value
"O=C1NC(=O)C(c2ccccc2)(c2ccccc2)N1 [PHT, Phenitoin, reference compound]",Agonistic activity,medaka Esr1 (mEsr1) [1],NE (MAC = 1.0 × 10^−4 M)
same,Antagonistic activity on mEsr1 (in words),medaka Esr1 (mEsr1) [2]; antagonist assays,inhibited the transcriptional activity on mEsr1 by E2
same,In vitro positive: aEsr,medaka Esr1 (mEsr1) [2]; mode of action in which IC50 or IC30 was obtained in RGA,aEsr
same,IC50,"medaka Esr1 (mEsr1) [2]; read-out: Antagonistic activity IC50, E2 spiked at 0.2 nM (A)",2100 nM
same,Agonistic activity,medaka ARβ (mArβ) [3],NE (MAC = 1.0 × 10^−4 M)
same,Antagonistic activity,medaka ARβ (mArβ) [4],NE (MAC = 3.2 × 10^−5 M)^(D)
same,Fertility rate,"[5]; 2.25 mg/L measured, 21 d",92 ± 2.8%
same,"Hepatic VTG, female","[5]; 2.25 mg/L measured, 21 d",685 ± 110 ng/mg‐liver
same,"Hepatic VTG, male","[5]; 2.25 mg/L measured, 21 d",1.4 ± 0.5 ng/mg‐liver
same,Mortality,"[5]; 2.25 mg/L measured, 21 d",0.0%
same,"Mortality, number of dead fish","[5]; 2.25 mg/L measured, 21 d",0
same,Number of fertilized eggs (per female per day),"[5]; 2.25 mg/L measured, 21 d",18 ± 4.3
same,Number of total eggs (per female per day),"[5]; 2.25 mg/L measured, 21 d",20 ± 5.0
same,SSC female (joint plates with papillary processes),"[5]; 2.25 mg/L measured, 21 d",0 ± 0
same,SSC male (joint plates with papillary processes),"[5]; 2.25 mg/L measured, 21 d",95 ± 14
same,Abnormal behavior (in words),[5]; 4.76 mg/L and above,fish frequently showed abnormal behavior such as loss of balance
same,Fertility rate,"[5]; 4.76 mg/L measured, 21 d",86 ± 9.3%
same,"Hepatic VTG, female","[5]; 4.76 mg/L measured, 21 d","1,013 ± 183 ng/mg‐liver"
same,"Hepatic VTG, male","[5]; 4.76 mg/L measured, 21 d",4.2 ± 6.7 ng/mg‐liver
same,Mortality,"[5]; 4.76 mg/L measured, 21 d",0.0%
same,"Mortality, number of dead fish","[5]; 4.76 mg/L measured, 21 d",0
same,Number of fertilized eggs (per female per day),"[5]; 4.76 mg/L measured, 21 d",17 ± 3.2
same,Number of total eggs (per female per day),"[5]; 4.76 mg/L measured, 21 d",20 ± 2.0
same,SSC female (joint plates with papillary processes),"[5]; 4.76 mg/L measured, 21 d",0 ± 0
same,"Hepatic VTG, female","[5]; 8.72 mg/L measured, 21 d",661 ± 199 ng/mg‐liver
same,"Hepatic VTG, male","[5]; 8.72 mg/L measured, 21 d",1.0 ± 0.4 ng/mg‐liver
same,Mortality,"[5]; 8.72 mg/L measured, 21 d",4.2%
same,"Mortality, number of dead fish","[5]; 8.72 mg/L measured, 21 d",1
same,SSC female (joint plates with papillary processes),"[5]; 8.72 mg/L measured, 21 d",0 ± 0
same,SSC male (joint plates with papillary processes),"[5]; 8.72 mg/L measured, 21 d",99 ± 21
same,Fertility rate,"[5]; 8.72 mg/L measured, 21 d, sig. ↓ vs control",49 ± 12%
same,"Hepatic VTG, female","[5]; 18.5 mg/L measured, 21 d",693 ± 243 ng/mg‐liver
same,"Hepatic VTG, male","[5]; 18.5 mg/L measured, 21 d",1.4 ± 0.9 ng/mg‐liver
same,SSC female (joint plates with papillary processes),"[5]; 18.5 mg/L measured, 21 d",0 ± 0
same,SSC male (joint plates with papillary processes),"[5]; 18.5 mg/L measured, 21 d",85 ± 15
same,Mortality,[5]; [6],33%
same,"Mortality, number of dead fish",[5]; [6],8
same,Fertility rate,"[5]; 18.5 mg/L measured, 21 d, sig. ↓ vs control",18 ± 4.1%
same,Change of hepatic VTG levels in females (in words),[5]; 21 d,did not reduce
same,"Fecundity, number of total eggs (in words)",[5]; 21 d,statistically significant decrease
same,LOECmVTG,[5]; LOEC on VTG induction in males,"ND (>18,500) μg/L"
same,LOECREPRO,[5]; LOEC on reproduction (fecundity and/or fertility),"8,720 μg/L"
same,LOECTOX,[5]; lowest observed effect concentration on mortality,"4,760 μg/L"
same,GSI Female,[5]; [7],8.3 ± 0.8%
same,GSI Male,[5]; [7],1.32 ± 0.77%
same,HSI Male,[5]; [7],1.4 ± 0.36%
same,Length Female,[5]; [7],35.9 ± 0.4 mm
same,Length Male,[5]; [7],35.9 ± 0.6 mm
same,Weight Female,[5]; [7],466 ± 26 mg
same,Weight Male,[5]; [7],435 ± 26 mg
same,GSI Female,[5]; [8],9.0 ± 1.4%
same,GSI Male,[5]; [8],1.00 ± 0.26%
same,HSI Male,[5]; [8],1.6 ± 0.35%
same,Length Female,[5]; [8],35.5 ± 1.0 mm
same,Length Male,[5]; [8],36.5 ± 1.5 mm
same,Weight Female,[5]; [8],463 ± 10 mg
same,Weight Male,[5]; [8],435 ± 63 mg
same,GSI Female,[5]; [9],19.3 ± 10%
same,GSI Male,[5]; [9],1.04 ± 0.31%
same,HSI Male,[5]; [9],2.2 ± 0.30%
same,Length Female,[5]; [9],36.0 ± 0.5 mm
same,Length Male,[5]; [9],36.5 ± 0.1 mm
same,Weight Female,[5]; [9],576 ± 28 mg
same,Weight Male,[5]; [9],415 ± 31 mg
same,GSI Female,[5]; [10],17.0 ± 9.7%
same,GSI Male,[5]; [10],0.44 ± 0.26%
same,HSI Male,[5]; [10],3.4 ± 0.47%
same,Length Female,[5]; [10],37.5 ± 1.4 mm
same,Length Male,[5]; [10],38.4 ± 1.4 mm
same,Weight Female,[5]; [10],609 ± 67 mg
same,Weight Male,[5]; [10],507 ± 83 mg
